Among the data in ChEMBL document CHEMBL3870361, “Discovery of Novel Seven-Membered Prostacyclin Analogues as Potent and Selective Prostaglandin FP and EP3 Dual Agonists” (ACS Med Chem Lett, 2017) are EC50 values, retold here.

For test [1], the target named is Prostaglandin F2-alpha receptor (Homo sapiens, UniProt P43088). In words: Agonist activity at human prostaglandin FP receptor expressed in CHO cells assessed as increase in intracellular calcium level by Fura 2-AM dye based fluorescence assay. Type of test: functional, cell-based.
Chain of Prostaglandin F2-alpha receptor (P43088 whole entry): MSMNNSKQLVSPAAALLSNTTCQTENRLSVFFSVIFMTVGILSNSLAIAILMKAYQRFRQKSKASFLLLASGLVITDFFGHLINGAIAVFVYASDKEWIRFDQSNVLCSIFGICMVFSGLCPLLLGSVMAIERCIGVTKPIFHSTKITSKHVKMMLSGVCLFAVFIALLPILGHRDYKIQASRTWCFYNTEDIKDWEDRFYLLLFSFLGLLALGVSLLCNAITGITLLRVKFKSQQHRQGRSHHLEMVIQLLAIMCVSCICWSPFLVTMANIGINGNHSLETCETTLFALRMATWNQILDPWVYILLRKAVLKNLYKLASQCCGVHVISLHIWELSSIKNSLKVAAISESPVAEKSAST
In test [2] the target is T1, Prostaglandin E2 receptor EP3 subtype (Homo sapiens, UniProt P43115).
T1 sequence (P43115 whole entry): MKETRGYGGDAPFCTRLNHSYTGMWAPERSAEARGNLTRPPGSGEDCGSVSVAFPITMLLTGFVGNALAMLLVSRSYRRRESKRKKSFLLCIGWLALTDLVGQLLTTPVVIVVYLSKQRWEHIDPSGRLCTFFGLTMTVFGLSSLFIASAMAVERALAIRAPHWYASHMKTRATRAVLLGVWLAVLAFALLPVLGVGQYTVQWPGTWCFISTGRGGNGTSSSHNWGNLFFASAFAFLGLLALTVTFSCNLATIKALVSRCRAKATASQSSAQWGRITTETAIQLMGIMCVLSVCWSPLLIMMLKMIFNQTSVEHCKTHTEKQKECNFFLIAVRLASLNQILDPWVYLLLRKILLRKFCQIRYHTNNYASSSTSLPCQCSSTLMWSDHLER
In words: Agonist activity at human EP3 receptor expressed in CHO cells assessed as increase in intracellular calcium level by Fura 2-AM dye based fluorescence assay. The format is functional, cell-based.

The target of test [3] is Prostacyclin receptor (Homo sapiens, UniProt P43119). Description: Agonist activity at human IP receptor expressed in CHO cells assessed as increase in intracellular cAMP level by HTRF method. The format is cell-based. Background: Cyclic AMP is a second messenger, typically raised through Gs and lowered through Gi signalling.
Chain of Prostacyclin receptor (P43119 whole entry): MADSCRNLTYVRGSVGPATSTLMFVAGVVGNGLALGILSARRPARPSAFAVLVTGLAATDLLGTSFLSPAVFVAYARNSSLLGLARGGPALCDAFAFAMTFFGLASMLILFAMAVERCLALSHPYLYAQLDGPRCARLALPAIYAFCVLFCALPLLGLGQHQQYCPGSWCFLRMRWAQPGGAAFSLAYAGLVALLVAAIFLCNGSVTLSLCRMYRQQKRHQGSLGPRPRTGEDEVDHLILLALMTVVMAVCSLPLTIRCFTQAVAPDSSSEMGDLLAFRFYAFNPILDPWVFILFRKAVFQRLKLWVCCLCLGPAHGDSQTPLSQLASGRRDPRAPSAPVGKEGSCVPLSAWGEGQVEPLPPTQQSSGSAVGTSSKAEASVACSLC
Test [4] addresses Prostaglandin E2 receptor EP2 subtype (Homo sapiens, UniProt P43116). Description: Agonist activity at EP2 receptor (unknown origin).
Test [5] deals with Prostaglandin E2 receptor EP4 subtype (Homo sapiens, UniProt P35408). In words: Agonist activity at EP4 receptor (unknown origin).
Chain of Prostaglandin E2 receptor EP4 subtype (P35408 whole entry): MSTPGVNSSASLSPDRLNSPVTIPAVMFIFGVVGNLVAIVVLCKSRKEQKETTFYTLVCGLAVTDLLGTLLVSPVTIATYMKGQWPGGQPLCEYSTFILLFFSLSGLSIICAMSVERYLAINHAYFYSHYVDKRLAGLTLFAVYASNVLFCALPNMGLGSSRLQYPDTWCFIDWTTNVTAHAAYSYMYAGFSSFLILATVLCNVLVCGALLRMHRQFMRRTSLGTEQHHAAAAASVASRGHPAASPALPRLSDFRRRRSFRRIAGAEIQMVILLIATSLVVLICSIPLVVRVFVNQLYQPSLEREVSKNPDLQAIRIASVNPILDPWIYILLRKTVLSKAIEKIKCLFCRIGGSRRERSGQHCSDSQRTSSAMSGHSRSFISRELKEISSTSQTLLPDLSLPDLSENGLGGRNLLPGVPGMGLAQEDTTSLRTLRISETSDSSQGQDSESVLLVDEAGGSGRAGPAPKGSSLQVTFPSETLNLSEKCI

Chain of Prostaglandin E2 receptor EP2 subtype (P43116 whole entry): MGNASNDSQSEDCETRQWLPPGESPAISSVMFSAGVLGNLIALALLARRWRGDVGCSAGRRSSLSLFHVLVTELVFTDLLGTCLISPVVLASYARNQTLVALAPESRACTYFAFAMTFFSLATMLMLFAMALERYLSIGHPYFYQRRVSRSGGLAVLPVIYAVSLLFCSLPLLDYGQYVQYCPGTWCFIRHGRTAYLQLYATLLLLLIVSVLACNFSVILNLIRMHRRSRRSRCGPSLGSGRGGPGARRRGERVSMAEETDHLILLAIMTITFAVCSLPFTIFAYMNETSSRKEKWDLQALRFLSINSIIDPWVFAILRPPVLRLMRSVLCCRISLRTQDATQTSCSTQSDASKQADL

Usually EC50 stands for the concentration needed to bring the measured effect to its halfway point. Turning to `O=C(O)CCC/C=C\C[C@@H]1[C@@H](/C=C/[C@@H](O)COc2cccc(C(F)(F)F)c2)[C@H](O)C[C@@H]1O` [FLUPROSTENOL], the half-maximal effective concentration (EC50) in test [1] was 3.6 nM; in test [2], 3400 nM; in test [3] it was above 10 µM.

In the case of `O=C(O)CC[C@H]1CC[C@@H]2[C@@H](/C=C/[C@@H](O)COc3ccccc3)[C@H](O)C[C@@H]2OC1`, the EC50 in test [1] was 110 nM; in test [2] it was 4800 nM; in test [3], above 10 µM.

`O=C(O)CCC[C@H]1CC[C@@H]2[C@@H](/C=C/[C@@H](O)COc3ccccc3)[C@H](O)C[C@@H]2O1`: the 50% effective concentration (EC50) in test [1] came out at 7.1 nM; in test [2], 3.6 nM.

For the compound `O=C(O)CCCC[C@H]1CC[C@@H]2[C@@H](/C=C/[C@@H](O)COc3ccccc3)[C@H](O)C[C@@H]2OC1`, the half-maximal effective concentration (EC50) was 43 nM in test [1], 540 nM in test [2] and above 10 µM in test [3].

In the case of `O=C(O)CC[C@H]1CCC[C@@H]2[C@@H](/C=C/[C@@H](O)COc3ccccc3)[C@H](O)C[C@@H]2O1`, the EC50 in test [1] is 22 nM; in test [2] it was 18 nM; in test [3], above 10 µM.

On to `O=C(O)CC[C@@H]1CCC[C@@H]2[C@@H](/C=C/[C@@H](O)COc3ccccc3)[C@H](O)C[C@@H]2O1`, for which the results for the 50% effective concentration (EC50) in test [1], in test [2] and in test [3] were 3.8 nM, 27 nM and 2 µM, respectively.

Consider `O=C(O)CC[C@@H]1CC[C@@H]2[C@@H](/C=C/[C@@H](O)COc3ccccc3)[C@H](O)C[C@@H]2OC1`, for which the EC50 was 1000 nM in test [1], 870 nM in test [2] and above 10 µM in test [3].

With `O=C(O)CCC[C@@H]1CC[C@@H]2[C@@H](/C=C/[C@@H](O)COc3ccccc3)[C@H](O)C[C@@H]2OC1`, the EC50 was 280 nM in test [1], 2.3 nM in test [2] and above 10 µM in test [3].

For `O=C(O)CCC1=CC[C@@H]2[C@@H](/C=C/[C@@H](O)COc3ccccc3)[C@H](O)C[C@@H]2OC1`, the EC50 in test [1] is 530 nM; in test [2], 2700 nM; in test [3], above 10 µM.

`O=C(O)CCC/C=C\C[C@H]1C(=O)C[C@@H](O)[C@@H]1/C=C/[C@@H](O)COc1ccccc1`: the EC50 in test [1] was found to be 16 nM; in test [2], 0.89 nM.

As to `O=C(O)CCCC[C@@H]1CC[C@@H]2[C@@H](/C=C/[C@@H](O)COc3ccccc3)[C@H](O)C[C@@H]2OC1`, the concentration for a half-maximal effect (EC50) in test [1] was 110 nM; in test [2], 130 nM; in test [3], above 10 µM.

On to `O=C(O)CCC[C@H]1CC[C@@H]2[C@@H](/C=C/[C@@H](O)COc3ccccc3)[C@H](O)C[C@@H]2OC1`, for which the EC50 is 28 nM in test [1]; 4 nM in test [2]; above 10 µM in test [3]; above 10 µM in test [4]; above 10 µM in test [5].

Take `O=C(O)CCCC1=CC[C@@H]2[C@@H](/C=C/[C@@H](O)COc3ccccc3)[C@H](O)C[C@@H]2OC1`: the concentration for a half-maximal effect (EC50) in test [1] was 640 nM; in test [2] it was 4700 nM; in test [3], above 10 µM.

With `O=C(O)CCCCC1=CC[C@@H]2[C@@H](/C=C/[C@@H](O)COc3ccccc3)[C@H](O)C[C@@H]2OC1`, the EC50 in test [1] is 73 nM; in test [2], 13 nM; in test [3], above 10 µM.

Consider `O=C(O)CCC[C@@H]1CC[C@@H]2[C@@H](/C=C/[C@@H](O)COc3ccccc3)[C@H](O)C[C@@H]2O1`, for which the EC50 in test [1] was 4.1 nM; in test [2], 4.1 nM; in test [3] it was 0.026 µM.

With `O=C(O)CCCCCC1=CC[C@@H]2[C@@H](/C=C/[C@@H](O)COc3ccccc3)[C@H](O)C[C@@H]2OC1`, the concentration giving a half-maximal response (EC50) in test [1] was 880 nM; in test [2] it was 6400 nM; in test [3], above 10 µM.
